Assay results taken from publication PMC6886798, “Expression of myeloid Src-family kinases is associated with poor prognosis in AML and influences Flt3-ITD kinase inhibitor acquired resistance” (PLoS ONE, 2019).

Assays:
Experiment in all cases: KINOMEscan
Type in all cases: binding
Conditions in all cases: 1.0 µM
ALK(L1196M) = biological target: T1, ALK(L1196M) (Homo sapiens, UniProt Q9UM73, L1196M)
T1 construct: purchased Eurofins/DiscoverX KINOMEscan scanMAX
Procedure: (§1) Kinase retention to the immobilized ligand is then measured using quantitative real-time PCR for each kinase-specific DNA barcode.

CAMK1B = biological target: T2, CAMK1B (Homo sapiens, UniProt Q6P2M8)
T2 construct: purchased Eurofins/DiscoverX KINOMEscan scanMAX
Procedure: as §1

CAMK1D = biological target: T3, CAMK1D (Homo sapiens, UniProt Q8IU85)
T3 construct: purchased Eurofins/DiscoverX KINOMEscan scanMAX
Procedure: as §1

CAMKK1 = biological target: T4, CAMKK1 (Homo sapiens, UniProt Q8N5S9)
T4 construct: purchased Eurofins/DiscoverX KINOMEscan scanMAX
Procedure: as §1

CAMKK2 = biological target: T5, CAMKK2 (Homo sapiens, UniProt Q96RR4)
T5 construct: purchased Eurofins/DiscoverX KINOMEscan scanMAX
Procedure: as §1

CDK4 = biological target: T6, CDK4 (Homo sapiens, UniProt P11802)
T6 construct: purchased Eurofins/DiscoverX KINOMEscan scanMAX
Procedure: as §1

CDK7 = biological target: T7, CDK7 (Homo sapiens, UniProt P50613)
T7 construct: purchased Eurofins/DiscoverX KINOMEscan scanMAX
Procedure: as §1

CHEK1 = biological target: T8, CHEK1 (Homo sapiens, UniProt O14757)
T8 construct: purchased Eurofins/DiscoverX KINOMEscan scanMAX
Procedure: as §1

DDR2 = biological target: T9, DDR2 (Homo sapiens, UniProt Q16832)
T9 construct: purchased Eurofins/DiscoverX KINOMEscan scanMAX
Procedure: as §1

DRAK2 = biological target: T10, DRAK2 (Homo sapiens, UniProt O94768)
T10 construct: purchased Eurofins/DiscoverX KINOMEscan scanMAX
Procedure: as §1

DYRK1A = biological target: T11, DYRK1A (Homo sapiens, UniProt Q13627)
T11 construct: purchased Eurofins/DiscoverX KINOMEscan scanMAX
Procedure: as §1

EPHA1 = biological target: T12, EPHA1 (Homo sapiens, UniProt P21709)
T12 construct: purchased Eurofins/DiscoverX KINOMEscan scanMAX
Procedure: as §1

EPHA8 = biological target: T13, EPHA8 (Homo sapiens, UniProt P29322)
T13 construct: purchased Eurofins/DiscoverX KINOMEscan scanMAX
Procedure: as §1

ERK8 = biological target: T14, ERK8 (Homo sapiens, UniProt Q8TD08)
T14 construct: purchased Eurofins/DiscoverX KINOMEscan scanMAX
Procedure: as §1

FES = biological target: T15, FES (Homo sapiens, UniProt P07332)
T15 construct: purchased Eurofins/DiscoverX KINOMEscan scanMAX
Procedure: as §1

FGFR3 = biological target: T16, FGFR3 (Homo sapiens, UniProt P22607)
T16 construct: purchased Eurofins/DiscoverX KINOMEscan scanMAX
Procedure: as §1

FYN = biological target: T17, FYN (Homo sapiens, UniProt P06241)
T17 construct: purchased Eurofins/DiscoverX KINOMEscan scanMAX
Procedure: as §1

HASPIN = biological target: T18, HASPIN (Homo sapiens, UniProt Q8TF76)
T18 construct: purchased Eurofins/DiscoverX KINOMEscan scanMAX
Procedure: as §1

HIPK1 = biological target: T19, HIPK1 (Homo sapiens, UniProt Q86Z02)
T19 construct: purchased Eurofins/DiscoverX KINOMEscan scanMAX
Procedure: as §1

MAP3K3 = biological target: T20, MAP3K3 (Homo sapiens, UniProt Q99759)
T20 construct: purchased Eurofins/DiscoverX KINOMEscan scanMAX
Procedure: as §1

MAP4K4 = biological target: T21, MAP4K4 (Homo sapiens, UniProt O95819)
T21 construct: purchased Eurofins/DiscoverX KINOMEscan scanMAX
Procedure: as §1

MEK5 = biological target: T22, MEK5 (Homo sapiens, UniProt Q13163)
T22 construct: purchased Eurofins/DiscoverX KINOMEscan scanMAX
Procedure: as §1

MRCKB = biological target: T23, MRCKB (Homo sapiens, UniProt Q9Y5S2)
T23 construct: purchased Eurofins/DiscoverX KINOMEscan scanMAX
Procedure: as §1

NEK11 = biological target: T24, NEK11 (Homo sapiens, UniProt Q8NG66)
T24 construct: purchased Eurofins/DiscoverX KINOMEscan scanMAX
Procedure: as §1

NEK2 = biological target: T25, NEK2 (Homo sapiens, UniProt P51955)
T25 construct: purchased Eurofins/DiscoverX KINOMEscan scanMAX
Procedure: as §1

PHKG1 = biological target: T26, PHKG1 (Homo sapiens, UniProt Q16816)
T26 construct: purchased Eurofins/DiscoverX KINOMEscan scanMAX
Procedure: as §1

PIM1 = biological target: T27, PIM1 (Homo sapiens, UniProt P11309)
T27 construct: purchased Eurofins/DiscoverX KINOMEscan scanMAX
Procedure: as §1

PLK1 = biological target: T28, PLK1 (Homo sapiens, UniProt P53350)
T28 construct: purchased Eurofins/DiscoverX KINOMEscan scanMAX
Procedure: as §1

PRKCE = biological target: T29, PRKCE (Homo sapiens, UniProt Q02156)
T29 construct: purchased Eurofins/DiscoverX KINOMEscan scanMAX
Procedure: as §1

PRKX = biological target: T30, PRKX (Homo sapiens, UniProt P51817)
T30 construct: purchased Eurofins/DiscoverX KINOMEscan scanMAX
Procedure: as §1

RIPK4 = biological target: T31, RIPK4 (Homo sapiens, UniProt P57078)
T31 construct: purchased Eurofins/DiscoverX KINOMEscan scanMAX
Procedure: as §1

[1] = biological target: T32, RSK1(Kin.Dom.1-N-terminal) (Homo sapiens, UniProt Q15418)
T32 construct: RSK1(Kin.Dom.1-N-terminal); purchased Eurofins/DiscoverX KINOMEscan scanMAX
Procedure: as §1

[2] = biological target: T33, RSK1(Kin.Dom.2-C-terminal) (Homo sapiens, UniProt Q15418)
T33 construct: RSK1(Kin.Dom.2-C-terminal); purchased Eurofins/DiscoverX KINOMEscan scanMAX
Procedure: as §1

[3] = biological target: T34, RSK3(Kin.Dom.1-N-terminal) (Homo sapiens, UniProt Q15349)
T34 construct: RSK3(Kin.Dom.1-N-terminal); purchased Eurofins/DiscoverX KINOMEscan scanMAX
Procedure: as §1

SRPK1 = biological target: T35, SRPK1 (Homo sapiens, UniProt Q96SB4)
T35 construct: purchased Eurofins/DiscoverX KINOMEscan scanMAX
Procedure: as §1

SRPK2 = biological target: T36, SRPK2 (Homo sapiens, UniProt P78362)
T36 construct: purchased Eurofins/DiscoverX KINOMEscan scanMAX
Procedure: as §1

TEC = biological target: T37, TEC (Homo sapiens, UniProt P42680)
T37 construct: purchased Eurofins/DiscoverX KINOMEscan scanMAX
Procedure: as §1

TGFBR1 = biological target: T38, TGFBR1 (Homo sapiens, UniProt P36897)
T38 construct: purchased Eurofins/DiscoverX KINOMEscan scanMAX
Procedure: as §1

TIE2 = biological target: T39, TIE2 (Homo sapiens, UniProt Q02763)
T39 construct: purchased Eurofins/DiscoverX KINOMEscan scanMAX
Procedure: as §1

TRKB = biological target: T40, TRKB (Homo sapiens, UniProt Q16620)
T40 construct: purchased Eurofins/DiscoverX KINOMEscan scanMAX
Procedure: as §1

WNK4 = biological target: T41, WNK4 (Homo sapiens, UniProt Q96J92)
T41 construct: DNA tag (qPCR barcode); purchased Eurofins/DiscoverX KINOMEscan scanMAX
Procedure: as §1

T28 sequence (P53350 whole entry): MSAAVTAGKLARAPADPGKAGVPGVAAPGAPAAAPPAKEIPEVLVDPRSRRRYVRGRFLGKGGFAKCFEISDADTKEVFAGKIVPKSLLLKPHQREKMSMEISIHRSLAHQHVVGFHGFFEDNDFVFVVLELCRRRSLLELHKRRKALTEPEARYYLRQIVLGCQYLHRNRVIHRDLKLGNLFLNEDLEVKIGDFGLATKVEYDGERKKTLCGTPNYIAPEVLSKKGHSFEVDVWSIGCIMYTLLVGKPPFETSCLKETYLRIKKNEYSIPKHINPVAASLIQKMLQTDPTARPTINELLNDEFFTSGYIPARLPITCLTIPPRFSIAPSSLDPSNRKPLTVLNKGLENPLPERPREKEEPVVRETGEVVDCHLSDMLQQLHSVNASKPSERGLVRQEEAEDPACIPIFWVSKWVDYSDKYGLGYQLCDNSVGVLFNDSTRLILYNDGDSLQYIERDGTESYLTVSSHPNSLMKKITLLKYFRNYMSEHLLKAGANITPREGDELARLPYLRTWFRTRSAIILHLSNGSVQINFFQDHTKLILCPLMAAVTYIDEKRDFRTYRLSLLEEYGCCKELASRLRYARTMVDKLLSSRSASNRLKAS
T18 sequence (Q8TF76 whole entry): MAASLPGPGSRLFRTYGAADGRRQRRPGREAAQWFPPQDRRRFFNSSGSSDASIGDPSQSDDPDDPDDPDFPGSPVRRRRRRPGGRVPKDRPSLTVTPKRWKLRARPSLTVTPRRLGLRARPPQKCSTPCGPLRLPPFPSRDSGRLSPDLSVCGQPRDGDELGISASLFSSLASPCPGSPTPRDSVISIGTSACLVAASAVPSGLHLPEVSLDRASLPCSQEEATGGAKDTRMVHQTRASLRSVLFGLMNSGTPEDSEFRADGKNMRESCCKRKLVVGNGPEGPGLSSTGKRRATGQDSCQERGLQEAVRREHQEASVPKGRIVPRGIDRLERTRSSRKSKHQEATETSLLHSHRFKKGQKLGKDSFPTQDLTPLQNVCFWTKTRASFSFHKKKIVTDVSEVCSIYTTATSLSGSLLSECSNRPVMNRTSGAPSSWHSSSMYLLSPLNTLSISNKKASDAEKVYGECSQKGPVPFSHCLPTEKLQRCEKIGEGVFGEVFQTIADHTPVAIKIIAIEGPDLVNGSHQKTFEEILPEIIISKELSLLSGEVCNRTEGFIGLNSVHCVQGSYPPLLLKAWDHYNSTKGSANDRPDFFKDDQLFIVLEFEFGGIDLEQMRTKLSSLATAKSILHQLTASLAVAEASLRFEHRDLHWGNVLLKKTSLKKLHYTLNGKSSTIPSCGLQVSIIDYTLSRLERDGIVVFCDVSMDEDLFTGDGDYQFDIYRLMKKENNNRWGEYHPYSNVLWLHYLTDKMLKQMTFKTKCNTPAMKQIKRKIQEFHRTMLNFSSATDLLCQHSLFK
T13 sequence (P29322 28-1005): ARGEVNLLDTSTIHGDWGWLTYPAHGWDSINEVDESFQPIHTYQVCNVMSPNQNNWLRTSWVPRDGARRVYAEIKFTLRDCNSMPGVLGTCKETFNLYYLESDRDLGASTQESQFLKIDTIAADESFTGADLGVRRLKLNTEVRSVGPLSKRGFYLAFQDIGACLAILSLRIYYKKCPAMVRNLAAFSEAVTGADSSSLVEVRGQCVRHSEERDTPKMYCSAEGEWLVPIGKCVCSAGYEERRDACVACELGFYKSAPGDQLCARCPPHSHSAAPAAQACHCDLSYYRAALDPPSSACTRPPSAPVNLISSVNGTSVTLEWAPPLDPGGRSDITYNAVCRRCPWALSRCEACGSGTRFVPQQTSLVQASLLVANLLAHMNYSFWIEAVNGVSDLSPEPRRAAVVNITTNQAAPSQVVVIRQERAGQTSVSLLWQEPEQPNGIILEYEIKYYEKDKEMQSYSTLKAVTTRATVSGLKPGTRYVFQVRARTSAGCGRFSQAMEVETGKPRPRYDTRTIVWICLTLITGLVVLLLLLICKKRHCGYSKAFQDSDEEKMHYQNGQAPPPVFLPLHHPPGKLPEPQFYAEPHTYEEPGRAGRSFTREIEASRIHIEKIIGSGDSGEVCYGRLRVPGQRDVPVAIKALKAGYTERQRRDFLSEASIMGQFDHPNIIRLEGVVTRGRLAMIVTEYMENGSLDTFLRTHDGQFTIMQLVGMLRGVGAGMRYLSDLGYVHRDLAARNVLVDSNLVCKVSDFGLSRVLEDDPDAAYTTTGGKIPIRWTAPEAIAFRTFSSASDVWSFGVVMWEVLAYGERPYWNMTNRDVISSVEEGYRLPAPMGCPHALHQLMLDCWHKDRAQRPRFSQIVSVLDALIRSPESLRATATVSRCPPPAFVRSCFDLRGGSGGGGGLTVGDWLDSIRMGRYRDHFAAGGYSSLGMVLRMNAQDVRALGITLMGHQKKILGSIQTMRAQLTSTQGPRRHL
T23 sequence (Q9Y5S2 whole entry): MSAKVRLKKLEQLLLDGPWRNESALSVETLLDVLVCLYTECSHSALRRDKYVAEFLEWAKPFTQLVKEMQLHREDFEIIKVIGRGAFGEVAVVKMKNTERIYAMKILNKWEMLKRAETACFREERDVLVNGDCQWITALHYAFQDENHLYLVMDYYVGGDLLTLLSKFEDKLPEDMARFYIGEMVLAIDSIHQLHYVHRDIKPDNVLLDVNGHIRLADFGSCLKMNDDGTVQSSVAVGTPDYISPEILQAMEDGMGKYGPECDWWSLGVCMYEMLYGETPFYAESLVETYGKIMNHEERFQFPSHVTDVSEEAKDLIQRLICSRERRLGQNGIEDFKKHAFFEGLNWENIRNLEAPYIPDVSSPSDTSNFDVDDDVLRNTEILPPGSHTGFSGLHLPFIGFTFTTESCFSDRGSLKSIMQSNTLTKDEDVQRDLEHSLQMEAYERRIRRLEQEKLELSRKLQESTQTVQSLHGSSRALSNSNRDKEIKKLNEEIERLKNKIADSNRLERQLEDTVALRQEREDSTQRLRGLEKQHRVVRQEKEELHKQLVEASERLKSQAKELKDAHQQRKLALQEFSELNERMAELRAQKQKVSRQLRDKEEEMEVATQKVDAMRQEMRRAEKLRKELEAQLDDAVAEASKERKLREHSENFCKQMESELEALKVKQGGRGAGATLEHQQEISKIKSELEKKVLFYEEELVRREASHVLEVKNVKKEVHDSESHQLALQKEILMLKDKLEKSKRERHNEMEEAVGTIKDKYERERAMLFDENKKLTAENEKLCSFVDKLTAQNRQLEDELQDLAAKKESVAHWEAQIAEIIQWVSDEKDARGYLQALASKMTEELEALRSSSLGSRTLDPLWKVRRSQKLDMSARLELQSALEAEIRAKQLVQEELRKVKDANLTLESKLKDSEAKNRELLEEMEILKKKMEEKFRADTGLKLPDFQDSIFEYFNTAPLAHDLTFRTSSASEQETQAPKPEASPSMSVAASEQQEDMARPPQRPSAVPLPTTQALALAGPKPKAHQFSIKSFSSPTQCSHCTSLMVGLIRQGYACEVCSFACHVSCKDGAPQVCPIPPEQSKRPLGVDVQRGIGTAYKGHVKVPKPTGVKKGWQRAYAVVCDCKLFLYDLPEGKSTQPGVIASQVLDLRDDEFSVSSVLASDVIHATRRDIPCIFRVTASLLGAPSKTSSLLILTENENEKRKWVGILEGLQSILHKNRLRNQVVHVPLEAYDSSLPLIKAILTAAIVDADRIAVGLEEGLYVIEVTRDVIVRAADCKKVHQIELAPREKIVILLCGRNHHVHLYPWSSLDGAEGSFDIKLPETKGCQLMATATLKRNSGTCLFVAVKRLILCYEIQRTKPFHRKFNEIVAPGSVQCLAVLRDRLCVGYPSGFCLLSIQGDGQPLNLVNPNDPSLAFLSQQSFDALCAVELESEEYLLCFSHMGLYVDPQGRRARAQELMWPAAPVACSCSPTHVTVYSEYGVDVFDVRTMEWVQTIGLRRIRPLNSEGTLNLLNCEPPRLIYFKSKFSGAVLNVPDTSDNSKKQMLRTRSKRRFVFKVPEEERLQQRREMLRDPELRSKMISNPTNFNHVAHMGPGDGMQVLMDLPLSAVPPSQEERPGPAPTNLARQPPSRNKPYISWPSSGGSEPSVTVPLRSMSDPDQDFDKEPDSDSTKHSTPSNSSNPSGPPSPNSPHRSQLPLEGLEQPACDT
T22 sequence (Q13163 whole entry): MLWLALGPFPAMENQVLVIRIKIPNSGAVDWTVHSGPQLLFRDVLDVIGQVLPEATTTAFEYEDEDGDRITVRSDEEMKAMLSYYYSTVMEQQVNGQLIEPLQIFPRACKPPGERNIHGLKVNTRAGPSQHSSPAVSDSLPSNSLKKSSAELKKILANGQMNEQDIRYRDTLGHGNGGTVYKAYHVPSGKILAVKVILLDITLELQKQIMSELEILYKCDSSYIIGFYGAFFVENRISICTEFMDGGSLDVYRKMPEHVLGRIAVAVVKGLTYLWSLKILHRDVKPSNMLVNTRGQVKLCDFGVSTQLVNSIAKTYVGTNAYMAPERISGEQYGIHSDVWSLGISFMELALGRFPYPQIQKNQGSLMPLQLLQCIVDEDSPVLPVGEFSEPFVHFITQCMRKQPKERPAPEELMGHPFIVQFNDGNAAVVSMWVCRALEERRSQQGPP
T4 sequence (Q8N5S9 whole entry): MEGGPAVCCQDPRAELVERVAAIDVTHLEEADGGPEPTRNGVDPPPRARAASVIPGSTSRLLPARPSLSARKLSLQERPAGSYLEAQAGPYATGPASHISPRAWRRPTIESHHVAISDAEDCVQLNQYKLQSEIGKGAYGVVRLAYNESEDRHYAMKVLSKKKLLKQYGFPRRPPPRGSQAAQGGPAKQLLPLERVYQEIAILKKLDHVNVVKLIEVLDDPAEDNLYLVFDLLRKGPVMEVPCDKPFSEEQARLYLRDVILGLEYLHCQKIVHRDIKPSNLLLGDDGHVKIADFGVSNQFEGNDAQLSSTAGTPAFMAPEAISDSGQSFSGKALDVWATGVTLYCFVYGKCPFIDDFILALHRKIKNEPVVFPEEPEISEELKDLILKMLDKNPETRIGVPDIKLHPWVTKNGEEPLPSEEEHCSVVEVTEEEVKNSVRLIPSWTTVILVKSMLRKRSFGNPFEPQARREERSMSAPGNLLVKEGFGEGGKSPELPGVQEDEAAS

In the case of `CN1CCN(C2CCC(n3cc(-c4ccc(Oc5ccccc5)cc4)c4c(N)ncnc43)CC2)CC1` (centres unmarked) [A-419259], the “% Control” value (ALK(L1196M)) was 68%, the “% Control” value (CAMK1B) was 100% and the “% Control” value (CAMK1D) was 97%. For the same compound, the “% Control” value (CAMKK1) was 100%, the “% Control” value (CAMKK2) was 100% and the “% Control” value (CDK4) was 91%. The “% Control” value (CDK7) was 28%, the “% Control” value (CHEK1) was 54% and the “% Control” value (DDR2) was 59%. For the same compound, the “% Control” value (DRAK2) was 93%, the “% Control” value (DYRK1A) was 99% and the “% Control” value (EPHA1) was 58%. For the same compound, the “% Control” value (EPHA8) was 72%, the “% Control” value (ERK8) was 100% and the “% Control” value (FES) was 100%. The “% Control” value (FGFR3) was 30%, the “% Control” value (FYN) was 5.1% and the “% Control” value (HASPIN) was 70%. For the same compound, the “% Control” value (HIPK1) was 80%, the “% Control” value (MAP3K3) was 6.3% and the “% Control” value (MAP4K4) was 83%. The “% Control” value (MEK5) was 0.25%, the “% Control” value (MRCKB) was 100% and the “% Control” value (NEK11) was 77%. The “% Control” value (NEK2) was 81%, the “% Control” value (PHKG1) was 99% and the “% Control” value (PIM1) was 100%. For the same compound, the “% Control” value (PLK1) was 100%, the “% Control” value (PRKCE) was 88% and the “% Control” value (PRKX) was 100%. The “% Control” value (RIPK4) was 84%, the “% Control” value [1] was 8.4% and the “% Control” value [2] was 84%. The “% Control” value [3] was 22%, the “% Control” value (SRPK1) was 100% and the “% Control” value (SRPK2) was 97%. The “% Control” value (TEC) was 9%, the “% Control” value (TGFBR1) was 60% and the “% Control” value (TIE2) was 15%. For the same compound, the “% Control” value (TRKB) was 29% and the “% Control” value (WNK4) was 39%.
